biological target: KRas G12C (Homo sapiens, UniProt P01116, G12C); experiment: Cellular inhibition of KRas G12C measured by Phospho-ERK in NCI-H358 cells; assay type: cell-based; details: pERK(Thr202/Tyr204) normalized with GAPDH, NCI-H358 cells, 3 hours; read-out: IC50
In short: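 NCI-H358 cells were allowed to attach for 8-12 hours, then exposed to compounds for 3 hours at 0.5% DMSO final. After formaldehyde fixation and methanol permeabilization, phospho-ERK (Thr202/Tyr204) was detected by in-cell immunofluorescence and normalized to GAPDH; IC50 came from a 4-parameter fit of percent-of-DMSO values.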

KRas G12C, sequence (P01116 1-188 isoform P01116-2 G12C): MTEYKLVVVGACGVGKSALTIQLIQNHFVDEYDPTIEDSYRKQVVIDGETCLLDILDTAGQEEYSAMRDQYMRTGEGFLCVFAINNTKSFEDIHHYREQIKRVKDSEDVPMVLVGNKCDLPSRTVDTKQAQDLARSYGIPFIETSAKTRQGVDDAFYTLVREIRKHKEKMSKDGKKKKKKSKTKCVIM

Compound	IC50 [nM]
C=CC(=O)N1CCN(c2nc(OCCCN3CCN(C(C)=O)CC3)nc3c2CCN(c2cc(O)cc4ccccc24)C3)CC1 [Example 135, 1-[4-[2-[3-(4-acetylpiperazin-1-yl)propoxy]-7-(3-hydroxy-1-naphthyl)-6,8-dihydro-5H-pyrido[3,4-d]pyrimidin-4-yl]piperazin-1-yl]prop-2-en-1-one]	0.1 to 1000
C=CC(=O)N1CCN(c2nc(OCCN3CCC(OC)C3)nc3c2CCN(c2cc(O)cc4ccccc24)C3)CC1 (stereo not drawn) [Example 136, 1-[4-[7-(3-hydroxy-1-naphthyl)-2-[2-(3-methoxypyrrolidin-1-yl)ethoxy]-6,8-dihydro-5H-pyrido[3,4-d]pyrimidin-4-yl]piperazin-1-yl]prop-2-en-1-one]	> 1000
C=CC(=O)N1CCN(c2nc(OCCCN3CCC(OC)C3)nc3c2CCN(c2cc(O)cc4ccccc24)C3)CC1 (stereo not drawn) [Example 137, 1-[4-[7-(3-hydroxy-1-naphthyl)-2-[3-(3-methoxypyrrolidin-1-yl)propoxy]-6,8-dihydro-5H-pyrido[3,4-d]pyrimidin-4-yl]piperazin-1-yl]prop-2-en-1-one]	> 1000
C=CC(=O)N1CCN(c2nc(OCCN3CC(F)(F)C3)nc3c2CCN(c2cc(O)cc4ccccc24)C3)CC1 [Example 138, 1-[4-[2-[2-(3,3-difluoroazetidin-1-yl)ethoxy]-7-(3-hydroxy-1-naphthyl)-6,8-dihydro-5H-pyrido[3,4-d]pyrimidin-4-yl]piperazin-1-yl]prop-2-en-1-one]	> 1000
C=CC(=O)N1CCN(c2nc(OCCN3CCC(F)(F)C3)nc3c2CCN(c2cc(O)cc4ccccc24)C3)CC1 [Example 139, 1-[4-[2-[2-(3,3-difluoropyrrolidin-1-yl)ethoxy]-7-(3-hydroxy-1-naphthyl)-6,8-dihydro-5H-pyrido[3,4-d]pyrimidin-4-yl]piperazin-1-yl]prop-2-en-1-one]	> 1000
C=CC(=O)N1CCN(c2nc(OCC3CCN(CC(=O)N(C)C)C3)nc3c2CCN(c2cc(O)cc4ccccc24)C3)CC1 (stereo not drawn) [Example 140, 2-[3-[[7-(3-hydroxy-1-naphthyl)-4-(4-prop-2-enoylpiperazin-1-yl)-6,8-dihydro-5H-pyrido[3,4-d]pyrimidin-2-yl]oxymethyl]pyrrolidin-1-yl]-N,N-dimethyl-acetamide]	> 1000
C=CC(=O)N1CCN(c2nc(OCC3CCN(CCO)C3)nc3c2CCN(c2cc(O)cc4ccccc24)C3)CC1 (stereo not drawn) [Example 141, 1-[4-[2-[[1-(2-hydroxyethyl)pyrrolidin-3-yl]methoxy]-7-(3-hydroxy-1-naphthyl)-6,8-dihydro-5H-pyrido[3,4-d]pyrimidin-4-yl]piperazin-1-yl]prop-2-en-1-one]	> 1000
C=CC(=O)N1CCN(c2nc(OCCO)nc3c2CCN(c2cc(O)cc4ccccc24)C3)CC1 [Example 142, 1-[4-[2-(2-hydroxyethoxy)-7-(3-hydroxy-1-naphthyl)-6,8-dihydro-5H-pyrido[3,4-d]pyrimidin-4-yl]piperazin-1-yl]prop-2-en-1-one]	> 1000
C=CC(=O)N1CCN(c2nc(OCC(O)CO)nc3c2CCN(c2cc(O)cc4ccccc24)C3)CC1 (stereo not drawn) [Example 143, 1-[4-[2-(2,3-dihydroxypropoxy)-7-(3-hydroxy-1-naphthyl)-6,8-dihydro-5H-pyrido[3,4-d]pyrimidin-4-yl]piperazin-1-yl]prop-2-en-1-one]	> 1000
C=CC(=O)N1CCN(c2nc(OC[C@@H]3CCCN3CCOC)nc3c2CCN(c2cc(O)cc4ccccc24)C3)CC1 [Example 144, (S)-1-(4-(7-(3-hydroxynaphthalen-1-yl)-2-((1-(2-methoxyethyl)pyrrolidin-2-yl)methoxy)-5,6,7,8-tetrahydropyrido[3,4-d]pyrimidin-4-yl)piperazin-1-yl)prop-2-en-1-one]	0.1 to 1000
C=CC(=O)N1CCN(c2nc(OC[C@@H]3CCCN3C(C)C)nc3c2CCN(c2cc(O)cc4ccccc24)C3)CC1 [Example 145, 1-[4-[7-(3-hydroxy-1-naphthyl)-2-[[(2S)-1-isopropylpyrrolidin-2-yl]methoxy]-6,8-dihydro-5H-pyrido[3,4-d]pyrimidin-4-yl]piperazin-1-yl]prop-2-en-1-one]	0.1 to 1000
C=CC(=O)N1CCN(c2nc(OC[C@@H]3CCNC3)nc3c2CCN(c2cc(O)cc4ccccc24)C3)CC1 [Example 146, 1-[4-[7-(3-hydroxy-1-naphthyl)-2-[[(3R)-pyrrolidin-3-yl]methoxy]-6,8-dihydro-5H-pyrido[3,4-d]pyrimidin-4-yl]piperazin-1-yl]prop-2-en-1-one]	> 1000
C=CC(=O)N1CCN(c2nc(O[C@H](C)CN(C)C)nc3c2CCN(c2cc(O)cc4ccccc24)C3)CC1CC#N (stereo partly drawn) [Example 150, 2-(1-acryloyl-4-(2-(((R)-1-(dimethylamino)propan-2-yl)oxy)-7-(3-hydroxynaphthalen-1-yl)-5,6,7,8-tetrahydropyrido[3,4-d]pyrimidin-4-yl)piperazin-2-yl)acetonitrile]	0.1 to 1000
C=CC(=O)N1CCN(c2nc(O[C@H](C)CN(C)C)nc3c2CCN(c2cccc4ccccc24)C3)CC1CC#N (stereo partly drawn) [Example 151, 2-(1-acryloyl-4-(2-(((R)-1-(dimethylamino)propan-2-yl)oxy)-7-(naphthalen-1-yl)-5,6,7,8-tetrahydropyrido[3,4-d]pyrimidin-4-yl)piperazin-2-yl)acetonitrile]	> 1000
C=CC(=O)N1CCN(c2nc(O[C@H](C)CN(C)C)nc3c2CCN(c2c(C)ccc4[nH]ncc24)C3)CC1CC#N (stereo partly drawn) [Example 152, 2-[4-[2-[(1R)-2-(dimethylamino)-1-methyl-ethoxy]-7-(5-methyl-1H-indazol-4-yl)-6,8-dihydro-5H-pyrido[3,4-d]pyrimidin-4-yl]-1-prop-2-enoyl-piperazin-2-yl]acetonitrile]	0.1 to 1000
C=CC(=O)N1CCN(c2nc(OCCCN3C[C@@H]4C[C@H]3CO4)nc3c2CCN(c2cc(O)cc4ccccc24)C3)CC1CC#N (stereo partly drawn) [Example 153, 2-[4-[7-(3-hydroxy-1-naphthyl)-2-[3-[(1S,4S)-2-oxa-5-azabicyclo[2.2.1]heptan-5-yl]propoxy]-6,8-dihydro-5H-pyrido[3,4-d]pyrimidin-4-yl]-1-prop-2-enoyl-piperazin-2-yl]acetonitrile]	0.1 to 1000
C=CC(=O)N1CCN(c2nc(OCCCN3C[C@@H]4C[C@H]3CO4)nc3c2CCN(c2cccc4ccccc24)C3)CC1CC#N (stereo partly drawn) [Example 154, 2-[4-[7-(1-naphthyl)-2-[3-[(1S,4S)-2-oxa-5-azabicyclo[2.2.1]heptan-5-yl]propoxy]-6,8-dihydro-5H-pyrido[3,4-d]pyrimidin-4-yl]-1-prop-2-enoyl-piperazin-2-yl] acetonitrile]	0.1 to 1000
C=CC(=O)N1CCN(c2nc(OC[C@@H]3CCCN3C)nc3c2CCN(c2c(C(F)(F)F)ccc4[nH]ncc24)C3)CC1 [Example 156, (S)-1-(4-(2-((1-methylpyrrolidin-2-yl)methoxy)-7-(5-(trifluoromethyl)-1H-indazol-4-yl)-5,6,7,8-tetrahydropyrido[3,4-d]pyrimidin-4-yl)piperazin-1-yl)prop-2-en-1-one]	0.1 to 1000
C=CC(=O)N1CCN(c2nc(OC[C@@H]3CCCN3C)nc3c2CCN(c2c(OC)ccc4[nH]ncc24)C3)CC1 [Example 157]	> 1000
C=CC(=O)N1CCN(c2nc(OC[C@@H]3CCCN3C)nc3c2CCN(c2ccccc2C(F)(F)F)C3)CC1 [Example 159, (S)-1-(4-(2-((1-methylpyrrolidin-2-yl)methoxy)-7-(2-(trifluoromethyl)phenyl)-5,6,7,8-tetrahydropyrido[3,4-d]pyrimidin-4-yl)piperazin-1-yl)prop-2-en-1-one]	> 1000
C=CC(=O)N1CCN(c2nc(OCCCN3CCCCC3)nc3c2CCN(c2c(C)ccc4[nH]ncc24)C3)CC1 [Example 160, 1-(4-(7-(5-methyl-1H-indazol-4-yl)-2-(3-(piperidin-1-yl)propoxy)-5,6,7,8-tetrahydropyrido[3,4-d]pyrimidin-4-yl)piperazin-1-yl)prop-2-en-1-one]	> 1000
C=CC(=O)N1CCN(c2nc(OCC3CCN(C)C3)nc3c2CCN(c2c(C)ccc4[nH]ncc24)C3)CC1 (stereo not drawn) [Example 161, 1-[4-[7-(5-methyl-1H-indazol-4-yl)-2-[(1-methylpyrrolidin-3-yl)methoxy]-6,8-dihydro-5H-pyrido[3,4-d]pyrimidin-4-yl]piperazin-1-yl]prop-2-en-1-one]	> 1000
C=CC(=O)N1CCN(c2nc(O[C@H](C)CN(C)C)nc3c2CCN(c2c(C)ccc4[nH]ncc24)C3)CC1 [Example 162, 1-[4-[2-[(1R)-2-(dimethylamino)-1-methyl-ethoxy]-7-(5-methyl-1H-indazol-4-yl)-6,8-dihydro-5H-pyrido[3,4-d]pyrimidin-4-yl]piperazin-1-yl]prop-2-en-1-one]	> 1000
C=CC(=O)N1CCN(c2nc(OCCN(CC)CC)nc3c2CCN(c2c(C)ccc4[nH]ncc24)C3)CC1 [Example 163, 1-(4-(2-(2-(diethylamino)ethoxy)-7-(5-methyl-1H-indazol-4-yl)-5,6,7,8-tetrahydropyrido[3,4-d]pyrimidin-4-yl)piperazin-1-yl)prop-2-en-1-one]	> 1000
C=CC(=O)N1CCN(c2nc(OCCN3CCCCC3)nc3c2CCN(c2c(C)ccc4[nH]ncc24)C3)CC1 [Example 164]	> 1000
C=CC(=O)N1CCN(c2nc(OCCCN3CCOCC3)nc3c2CCN(c2cc(O)cc4ccccc24)C3)C(CO)C1 (stereo not drawn) [Example 168, 1-(3-(hydroxymethyl)-4-(7-(3-hydroxynaphthalen-1-yl)-2-(3-morpholinopropoxy)-5,6,7,8-tetrahydropyrido[3,4-d]pyrimidin-4-yl)piperazin-1-yl)prop-2-en-1-one]	> 1000
C=CC(=O)N1CCN(c2nc(OC[C@@H]3CCCN3C)nc3c2CCN(c2cc(O)cc4ccccc24)C3)C(CO)C1 (stereo partly drawn) [Example 169, 1-[3-(hydroxymethyl)-4-[7-(3-hydroxy-1-naphthyl)-2-[[(2S)-1-methylpyrrolidin-2-yl]methoxy]-6,8-dihydro-5H-pyrido [3,4-d]pyrimidin-4-yl]piperazin-1-yl]prop-2-en-1-one]	0.1 to 1000

Reference: patent US10689377B2 (Mirati Therapeutics, Inc., priority 2017, dated 2020)
